Data from paper PMC12391994, “Synthesis of a fac-Tricarbonylrhenium(I) Complex with Pyrithione, Its Physicochemical Characterization, and Assessment of Biological Effects” (ACS Omega, 2025).
Read-outs that look alike come from different tables or passages of the source.

Columns and labels:
[1] = target: T1, cathepsin B (exopeptidase activity) (Homo sapiens, UniProt P07858); test: Relative inhibition of cathepsin B exopeptidase activity; format: biochemical; conditions: 50 μM; substrate Abz-Gly-Ile-Val-Arg-Ala-Lys-(Dnp)-OH; pH 5.0
T1 construct: made in house; host or cells: E. coli
Source text: (§1) Relative inhibition is expressed as a percentage of the decrease in reaction velocity in the presence of an inhibitor, in comparison to the reaction velocity in the absence of an inhibitor. For that purpose, the specific fluorogenic substrates Z-Arg-Arg-7-amido-4-methylcoumarin (Z-Arg-Arg-AMC) and 2-aminobenzoyl (Abz)-Gly-Ile-Val-Arg-Ala-Lys-(Dnp)-OH were used for cathepsin B endopeptidase and exopeptidase activities, respectively, and Z-Phe-Arg-AMC was used for cathepsin L and V activities.
(§2) Human recombinant cathepsin B was expressed in E. coli, recombinant cathepsin V was expressed in Pichia pastoris, and human recombinant cathepsin L was expressed in E. coli, as reported. − For the determination of cathepsin B endopeptidase and exopeptidase activities, 100 mM phosphate buffer (pH 6.0) and 60 mM acetate buffer (pH 5.0) were used, respectively, and for the determination of cathepsin V and L activities, 100 mM acetate buffer (pH 5.5) was used. All buffers contained 0.1% PEG 8000 (Sigma-Aldrich, St. Louis, MO), 5 mM cysteine, and 1.5 mM EDTA. Prior to the assay, the enzymes were activated in the assay buffer for 5 min at 37 °C.
(§3) To determine the effect of inhibitors on enzyme activity, the following substrates were used: Z-Arg-Arg-AMC (final concentration 5 μM, Z-RR-AMC; Bachem, Bubendorf, Switzerland) for cathepsin B endopeptidase activity, Abz-Gly-Ile-Val-Arg-Ala-Lys-(Dnp)-OH (final concentration 1 μM, Abz-GIVRAK-(Dnp)-OH; Bachem) for cathepsin B exopeptidase activity, and Z-Phe-Arg-AMC (final concentration 2 μM, Z-FR-AMC; Bachem) for cathepsin V and L activity. The substrate ([…]) at a final concentration and inhibitor ([…]) at a concentration of 50 μM were added to the wells of a black microplate. The reaction was then initiated by adding 90 μL of activated enzyme (final concentrations: 5 nM cathepsin B for its endopeptidase activity, 0.5 nM cathepsin B for its exopeptidase activity, 2.5 ng/mL for cathepsin V, and 0.02 nM for cathepsin L) in the assay buffer. The formation of fluorescent degradation products during the reaction was continuously monitored at 460 ± 10 nm with excitation at 380 ± 20 nm for Z-Arg-Arg-AMC and Z-Phe-Arg-AMC and at 420 ± 10 nm with excitation at 320 ± 20 nm for Abz-Gly-Ile-Val-Arg-Ala-Lys(Dnp)-OH at 37 °C on a Tecan Infinite M1000 (Mannedorf, Switzerland) spectrofluorometer. All assay mixtures contained 5% (v/v) DMSO. To prevent false-positive inhibition due to the formation of compound aggregates, 0.01% Triton X-100 was used. All measurements were performed in triplicate and repeated twice. The relative inhibition was calculated using the following equation: relative inhibition (%) = 100(1 – v i/v o), where v i and v o designate the reaction velocities in the presence and absence of inhibitor, respectively.

[2] = target: T2, cathepsin B (endopeptidase activity) (Homo sapiens, UniProt P07858); test: Relative inhibition of cathepsin B endopeptidase activity; format: biochemical; conditions: for relative inhibition cathepsin B endopeptidase: 50 μM, substrate Z-Arg-Arg-AMC, pH 6.0
T2 construct: made in house; host or cells: E. coli
Source text: as §1, §2, §3

cathepsin V = target: T3, cathepsin V (Homo sapiens, UniProt O60911); test: Relative inhibition of cathepsin V; format: biochemical; conditions: for relative inhibition cathepsin V: 50 μM, substrate Z-Phe-Arg-AMC, pH 5.5
T3 construct: made in house; host or cells: Pichia pastoris
Source text: as §1, §2, §3

cathepsin L = target: T4, cathepsin L (Homo sapiens, UniProt P07711); test: Relative inhibition of cathepsin L; format: biochemical; conditions: for relative inhibition cathepsin L: 50 μM, substrate Z-Phe-Arg-AMC, pH 5.5
T4 construct: made in house; host or cells: E. coli
Source text: as §1, §2, §3

S. aureus ATCC 25923 [3] = tested on: S. aureus ATCC 25923; parameters: method as in our previous work; conditions: only on S. aureus strain; ref our previous work; cited from earlier work
[4] = target: T5, human serum albumin (HSA) (Homo sapiens, UniProt P02768); conditions: reported value for similar complex; cited from earlier work
T5 construct: purchased Sigma-Aldrich/Merck A8763

HSV-2 = tested on: HSV-2; parameters: method as in our previous work; conditions: ref our previous work; cited from earlier work
S. aureus ATCC 25923 [5] = test: Antibacterial MIC assay, S. aureus ATCC 25923; format: cell-based, Staphylococcus aureus; conditions: Staphylococcus aureus, ATCC25923; 18 h, visual inspection
Procedure: (§4) The antibacterial effect of the complex was tested against the Gram-negative strain Escherichia coli (E. coli) ATCC 25922, the Gram-positive reference strain Staphylococcus aureus (S. aureus) ATCC 25923, and the methicillin-resistant S. aureus MRSA ATCC 43300 strain. MRSA strains are responsible for several difficult-to-treat hospital-acquired infections.
(§5) The following bacterial strains were used in our experiments: Gram-positive S. aureus American Type Culture Collection (ATCC) 25923 as the methicillin-susceptible reference bacterial strain; methicillin-resistant S. aureus ATCC 43300 (MRSA) strain; E. coli ATCC 25922 as a Gram-negative bacterial strain.
(§6) MIC values of the complexes were determined in 96-well plates based on the Clinical and Laboratory Standard Institute guidelines (CLSI guidelines). The stock solutions of the compound (dissolved in DMSO at 5 mM concentration) were diluted in 100 μL of Mueller Hinton Broth. Then, 10^–4 dilution of an overnight bacterial culture in 100 μL of medium was added to each well, with the exception of the medium control wells.

E. coli ATCC 25922 = test: Antibacterial MIC assay, E. coli ATCC 25922; format: cell-based, Escherichia coli; conditions: Escherichia coli, ATCC25922, 18 h, read-out: MIC E. coli ATCC 25922
Procedure: as §4, §5, §6

Colo205 cells = test: MTT cytotoxicity assay, Colo205; format: cell-based, human; conditions: Homo sapiens, read-out: IC50 Colo205
Procedure: (§7) Its cytotoxicity was determined in the human HeLa cervical cancer cell line, the drug-sensitive Colo205 and its resistant counterpart, the ABCB1 expressing Colo320 colon adenocarcinoma cancer cell lines, using the colorimetric 3-(4,5-dimethylthiazol-2-yl)-2,5-diphenyltetrazolium bromide (MTT) test. To investigate the selectivity toward cancer cells, the noncancerous fibroblast CCD-19Lu cell line was included.
Drug-sensitive Colo205 (ATCC-CCL-222) and ABCB1 (MDR1)-LRP expressing and doxorubicin-resistant Colo320/MDR-LRP (ATCC-CCL-220.1) human colonic adenocarcinoma cell lines were purchased from LGC Promochem (Teddington, U.K.). The cells were cultured in RPMI 1640 medium supplemented with 10% heat-inactivated fetal bovine serum, 2 mM L-glutamine, 1 mM Na-pyruvate, and 10 mM HEPES.
(§8) The tested compound was dissolved in DMSO to prepare a 5 mM stock solution, which was diluted in complete culture medium, to study the effect of compounds on cell growth of human colonic adenocarcinoma cell lines. Doxorubicin was used as the positive control. The cells were treated with a trypsin-versene (EDTA) solution. Cells were adjusted to a density of 1 × 10^4 cells in 100 μL of the appropriate culture medium and were added to each well, with the exception of the medium control wells. Except for the semiadherent Colo205 and Colo320 cell lines, the other adherent cell lines were seeded 24 h prior to the assay. Then, stock solutions were diluted in the appropriate culture medium, and 2-fold serial dilutions of compounds were prepared in 100 μL of the medium, horizontally. The final volume of the wells containing compounds and cells was 200 μL. The plates were incubated at 37 °C for 72 h; at the end of the incubation period, 20 μL of MTT solution (from a stock solution of 5 mg/mL) was added to each well. […] Cell growth was determined by measuring the optical density (OD) at 540/630 nm with a Multiscan EX ELISA reader (Thermo Labsystems, Cheshire, WA). […]

[6] = tested on: S. aureus MRSA ATCC 43300; test: Antibacterial MIC assay, S. aureus MRSA ATCC 43300; format: cell-based, Staphylococcus aureus; conditions: Staphylococcus aureus, 18 h, read-out: MIC S. aureus MRSA ATCC 43300
Procedure: as §4, §5, §6

CCD-19Lu cells = test: MTT cytotoxicity assay, CCD-19Lu; format: cell-based, human; conditions: Homo sapiens, CCD 19Lu, 72 h incubation, noncancerous fibroblast
Procedure: as §7
as §8, with “horizontally.” for “horizontally. The final volume of the wells containing compounds and cells was 200 μL. The plates were incubated at 37 °C for 72 h; at the end of the incubation period, 20 μL of MTT solution (from a stock solution of 5 mg/mL) was added to each well.”

[7] = pH-dependent UV-vis spectrophotometry (solution speciation, pKa of aqua ligand); format: physicochemical
Source text: However, at pH > ∼8, the spectrum changes considerably (Figure ).
The isosbestic point indicates a single equilibrium process, which is most likely deprotonation of the coordinated aqua ligand in complex 4a. This process was studied in our previous work for similar fac-[Re(CO)3] complexes formed with (N,N)-bearing ligands, and the calculated pK a (H2O) is around 8. […] Similar pK a values in the presence and absence of the chloride ions indicate a low chloride affinity of the aqua complex. Based on these values, the fraction of [Re(CO)3(pth)(H2O)] is 100% at pH = 7.4. The analogous half-sandwich complex [Ru(cym)(pth)(H2O)]^+ was also characterized by high solution stability, and a similarly high pK a value (10.34 (0.2 M KCl)).
For the solution studies, an Agilent Cary 3500 spectrophotometer was utilized to obtain UV–vis spectra in the wavelength range of 200–1100 nm. The path length ( l ) was 1 cm in all cases. The concentrations of the complex were between 10 and 60 μM. For investigation of the effect of chloride ions, the samples contained 60 μM complex and 0–7300 equiv of Cl^–. For HSA-containing samples, complex concentrations were 60 μM, and 0.5 equiv of biomolecule (or 6 equiv of MIM) was added for kinetic studies, respectively. Individual samples contained 0–34 μM HSA. The computer program HypSpec was used to obtain equilibrium constants.

T4 sequence (P07711 114-333): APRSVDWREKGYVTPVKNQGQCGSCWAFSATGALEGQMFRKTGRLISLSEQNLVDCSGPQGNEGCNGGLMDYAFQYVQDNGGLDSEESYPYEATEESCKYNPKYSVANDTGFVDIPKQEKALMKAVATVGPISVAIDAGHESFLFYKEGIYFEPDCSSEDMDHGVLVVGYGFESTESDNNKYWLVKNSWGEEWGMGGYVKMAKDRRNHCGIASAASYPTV
T3 sequence (O60911 114-334): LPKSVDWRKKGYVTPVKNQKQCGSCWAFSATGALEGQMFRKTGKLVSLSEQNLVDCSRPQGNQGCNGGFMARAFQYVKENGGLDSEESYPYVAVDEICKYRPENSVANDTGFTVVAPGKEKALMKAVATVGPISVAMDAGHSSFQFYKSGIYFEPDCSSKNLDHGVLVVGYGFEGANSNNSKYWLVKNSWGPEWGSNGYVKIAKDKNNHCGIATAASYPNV
T5 sequence (P02768 25-609): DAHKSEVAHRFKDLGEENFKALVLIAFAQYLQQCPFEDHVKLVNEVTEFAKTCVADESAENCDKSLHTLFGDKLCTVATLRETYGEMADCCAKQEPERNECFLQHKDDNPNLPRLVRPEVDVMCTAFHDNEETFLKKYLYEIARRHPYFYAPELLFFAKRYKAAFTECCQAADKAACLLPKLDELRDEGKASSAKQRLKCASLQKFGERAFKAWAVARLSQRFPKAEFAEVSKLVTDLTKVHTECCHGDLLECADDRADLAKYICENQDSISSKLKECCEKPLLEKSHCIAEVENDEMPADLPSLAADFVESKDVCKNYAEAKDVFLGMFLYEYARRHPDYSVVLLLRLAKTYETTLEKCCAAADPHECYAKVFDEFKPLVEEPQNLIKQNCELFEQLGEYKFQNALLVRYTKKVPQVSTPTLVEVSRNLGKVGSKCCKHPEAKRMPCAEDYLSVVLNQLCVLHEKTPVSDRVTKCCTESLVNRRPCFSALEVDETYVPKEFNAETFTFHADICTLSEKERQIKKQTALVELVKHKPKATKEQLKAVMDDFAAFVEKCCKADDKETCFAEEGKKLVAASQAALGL

## [C-]#[O+].[C-]#[O+].[C-]#[O+].[C-]#[O+].[C-]#[O+].[Cl][Re] [[Re(CO)5Cl], rhenium(I) pentacarbonyl chloride]
[1]
  relative inhibition cathepsin B exopeptidase: 12.2 ± 3.0%
[2]
  relative inhibition cathepsin B endopeptidase: 6.7 ± 0.7%
Cathepsin V
  relative inhibition cathepsin V: 4.6 ± 0.3%
Cathepsin L
  relative inhibition cathepsin L: 1.6 ± 6.5%

## Cc1ccc(C(C)C)cc1.[Cl-].[O-][n+]1ccccc1[S-].[Ru+2] [[Ru(cym)(pth)Cl], [ruthenium(η^6-p-cymene)(pyrithionato)(chlorido)]]
[1]
  relative inhibition cathepsin B exopeptidase: 5.4 ± 7.2%
S. aureus ATCC 25923 [3]
  MIC S. aureus strain: 50 µM
[4]
  log KQ quenching constant: 5.81
[2]
  relative inhibition cathepsin B endopeptidase: 9.4 ± 1.8%
Cathepsin V
  relative inhibition cathepsin V: 1.7 ± 5.7%
HSV-2
  inhibition of growth of the HSV-2 virus: did not inhibit the growth of the HSV-2 virus
Cathepsin L
  relative inhibition cathepsin L: 1.5 ± 1.5%

## N#Cc1ccccc1 [benzonitrile, reference compound]
S. aureus ATCC 25923 [5]
  MIC: > 100 µM
E. coli ATCC 25922
  MIC: > 100 µM
Colo205 cells; COLO 205, 72 h
  IC50: > 100000 nM
[6]
  MIC: > 100 µM

## COc1cccc2c1C(=O)c1c(O)c3c(c(O)c1C2=O)C[C@@](O)(C(=O)CO)C[C@@H]3O[C@H]1C[C@H](N)[C@H](O)[C@H](C)O1 [doxorubicin, reference compound]
CCD-19Lu cells
  IC50: 244 ± 26 nM
Colo205 cells; COLO 205, 72 h incubation, MTT
  IC50: 584 ± 55 nM

## [O-][n+]1ccccc1S [pthH, Pyrithione]
[1]
  relative inhibition cathepsin B exopeptidase: n.i. ^a
[2]; pH 6, read-out: relative inhibition cathepsin B endopeptidase
  inhibition at 50 µM: 4.3 ± 2.3%
Cathepsin V; pH 5.5, read-out: relative inhibition cathepsin V
  inhibition at 50 µM: 2.3 ± 3.2%
Cathepsin L; pH 5.5, read-out: relative inhibition cathepsin L
  inhibition at 50 µM: 0.5 ± 1.9%

## [Re(CO)3(pth)(H2O)] [complex 4a]
[7]; 0.1 M KCl, 25.0 °C
  pKa (deprotonation of coordinated aqua ligand): 10.27 ± 0.01
[7]; 0.1 M KNO3
  pKa (deprotonation of coordinated aqua ligand): 10.15 ± 0.01
[7]; pH = 7.4, based on the pKa values
  fraction of aqua complex: 100%

## zinc pyrithione
[1]
  relative inhibition cathepsin B exopeptidase: 11.1 ± 2.2%
[2]
  relative inhibition cathepsin B endopeptidase: 8.7 ± 2.2%
Cathepsin V
  relative inhibition cathepsin V: 1.9 ± 3.0%
Cathepsin L
  relative inhibition cathepsin L: 1.3 ± 2.4%
